ChEMBL document CHEMBL1201862, “PubChem BioAssay data set” (2004)
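Five compound concentrations were applied to cells in 96-well plates for 48 hours; endpoints were derived by simple linear interpolation of the resulting dose-response curve. Abbreviation: GI50, concentration required for 50% inhibition of growth.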 Active and inactive are the calls of the source. No stated cut-off is given here; in the data, active = GI50 up to about 1.1 µM and inactive = higher.

What was measured:
Test in all cases: NCI-60 cell line screen, 48 h
HCT-116 = tested on: HCT-116
MOLT-4 = tested on: MOLT-4
COLO 205 = tested on: COLO 205
UO-31 = tested on: UO-31
SNB-78 = tested on: SNB-78
M19-MEL = tested on: M19-MEL
U-251 = tested on: U-251
SF-268 = tested on: SF-268
MDA-MB-231 = tested on: MDA-MB-231
RXF 393 = tested on: RXF 393
SK-MEL-5 = tested on: SK-MEL-5
NCI-H460 = tested on: NCI-H460
KM12 = tested on: KM12
NCI/ADR-RES = tested on: NCI/ADR-RES
SK-MEL-2 = tested on: SK-MEL-2
NCI-H23 = tested on: NCI-H23
DU-145 = tested on: DU-145
OVCAR-3 = tested on: OVCAR-3
OVCAR-5 = tested on: OVCAR-5
IGROV-1 = tested on: IGROV-1

Measured: GI50

Nc1ccc(C(=O)N/C(=C\c2cccc([N+](=O)[O-])c2)c2nc3c(O)nc(S)nc3[nH]2)cc1
inactive: HCT-116 81.3 µM | MOLT-4 > 56.2 µM | COLO 205 > 100 µM | UO-31 30.3 µM | SNB-78 39.3 µM | M19-MEL > 100 µM | U-251 42.7 µM | SF-268 25.9 µM | MDA-MB-231 > 53 µM | RXF 393 27.4 µM | SK-MEL-5 > 100 µM | NCI-H460 > 100 µM | KM12 > 100 µM | NCI/ADR-RES > 100 µM | SK-MEL-2 53.7 µM | NCI-H23 > 100 µM | DU-145 > 100 µM | OVCAR-3 > 100 µM | OVCAR-5 > 100 µM | IGROV-1 55.1 µM

C=C1C(=O)OC2CC(C)C3C=CC(=O)C3CC12 (centres undefined)
inactive: HCT-116 1.26 µM | MOLT-4 1.5 µM | COLO 205 1.52 µM | UO-31 2.9 µM | SNB-78 3.42 µM | M19-MEL 2.72 µM | U-251 6.76 µM | SF-268 2.55 µM | MDA-MB-231 1.89 µM | RXF 393 1.53 µM | SK-MEL-5 2.14 µM | NCI-H460 2.96 µM | KM12 5.64 µM | SK-MEL-2 2.04 µM | NCI-H23 1.83 µM | DU-145 5.41 µM | OVCAR-3 5.13 µM | OVCAR-5 3.29 µM | IGROV-1 3.62 µM
